# Where “and” joins values, the source holds several entries; their conditions need not be identical. Equal values may be shown once. Read-outs that look alike come from different tables or passages of the source.
# Key:
# [1] = tested on: bone marrow of rhesus macaques; conditions: ref Rao et al., 2005; cited from earlier work
# [2] = tested on: primary human hepatocytes (PHHs); conditions: cited from earlier work
# [3] = tested on: primary human hepatocytes (PHHs); conditions: cited from earlier work; remark: listed apart in the source
# [4] = cited from earlier work
# [5] = tested on: peripheral blood and bone marrow of rhesus macaques; conditions: single and repeated administration, ref Hotchkiss et al., 2008; cited from earlier work
# [6] = Cytotoxicity by ATP assay; conditions: rhesus macaque
# [7] = tested on: primary macaque hepatocytes (PMHs); experiment: Cytotoxicity by ATP assay; conditions: for Max. con.: maximum concentration
# [8] = tested on: primary macaque hepatocytes (PMHs); experiment: CometChip assay; conditions: for BMDU/BMDL / DNA damage (ratio of %DNA in tail at highest concentration to vehicle control) / LEC (lowest effective concentration) / BMDL50–BMDU50 / Potency ranking: PMH; for BMD50: PMH CometChip data, PROAST exponential model; for DNA damage (ratio of %DNA in tail at highest concentration to vehicle control) / LEC (lowest effective concentration): 24-h treatment; for LEC (lowest effective concentration): lowest concentration positive in comet assay; for BMDL50–BMDU50: 90 % confidence interval of BMD50; for Potency ranking: rank by BMD50 among nine positive compounds; for fold increase in % tail DNA (DNA damage) compared to the vehicle control: PMHs, highest acceptable concentration, range given for four compounds together; for LEC fold higher in PHHs than in PMHs: comet assay LEC, PHH vs PMH
# [9] = tested on: peripheral blood lymphocytes of male rhesus macaques; conditions: single dose of 50 mg/kg, ref Dobrovolsky et al., 2009; cited from earlier work
# [10] = reported findings; ref References column of Table 1; cited from earlier work
# [11] = tested on: primary macaque hepatocytes (PMHs); conditions: rhesus macaque, 24 h
# [12] = reported findings; ref References column of Table 1; cited from earlier work; remark: listed apart in the source
# Vero cells = conditions: ref Gomes et al., 2021; cited from earlier work
# cynomolgus monkeys = conditions: dosed cynomolgus monkeys; ref Thorgeirsson et al., 1995; cited from earlier work
# [13] = tested on: primary macaque hepatocytes (PMHs); conditions: rhesus macaque, 24 h; remark: listed apart in the source
# [14] = PHH CometChip data reanalyzed using PROAST, ref Seo et al., 2020
# [15] = PHH, 90 % confidence interval of BMD50, ref Seo et al., 2020
# [16] = PHH, rank by BMD50 among nine positive compounds, ref Seo et al., 2020
# [17] = PHH, lowest concentration positive in comet assay, ref Seo et al., 2020
# [18] = PHH, ATP assay, 24-h treatment, ref Seo et al., 2020
# [19] = PHH, maximum concentration, ref Seo et al., 2020
# [20] = reported findings, ref References column of Table 1
SMILES,"BMD50 [2, 14]","BMDL50–BMDU50 [2, 15]","Potency ranking [2, 16]","LEC (lowest effective concentration) [2, 17]","BMDU/BMDL ([2]; PHH, ref Seo et al., 2020)","DNA damage (ratio of %DNA in tail at highest concentration to vehicle control) ([2]; PHH, ref Seo et al., 2020)","Cytotoxicity [3, 18]","Max. con. [3, 19]","Genotoxicity assay findings in vivo [4, 20]","Max. con. ([7]; PMH, 24-h treatment)","Cytotoxicity ([7]; PMH, ATP assay, 24-h treatment)",BMDU/BMDL [8],BMD50 [8],DNA damage (ratio of %DNA in tail at highest concentration to vehicle control) [8],LEC (lowest effective concentration) [8],BMDL50–BMDU50 [8],Potency ranking [8],Genotoxicity assay findings in vitro [10],further results
S=P(N1CC1)(N1CC1)N1CC1 [thiotepa],–,–,–,–,–,–,–,–,–,–,–,–,–,–,–,–,–,–,chromosomal aberrations in bone marrow [1]: induced chromosomal aberrations
"O=P1(N(CCCl)CCCl)NCCCO1 (stereo not shown) [CPA, cyclophosphamide]",248.2 µM,135 to 437 µM,8,1768 µM,3.2,++ (2 < ratio ≤ 5),+ (11–30 %),"10,000 μM","(+) for CA, MN, Pig-a, TG, and comet",5000 µM,+++ (> 50 %),2.3,253 µM and 253.8 µM,+++ (the ratio > 5),937.5 µM,165 to 372 µM,7,–,"cell viability ([3]; PHHs, 10,000 μM, ref Seo et al., 2020): 88%; micronucleated reticulocytes [5]: significantly increased; viability at 24 h, 2500 µM [6]: 50%; fold increase in % tail DNA (DNA damage) compared to the vehicle control [8]: 6.1–8.1 fold; LEC fold higher in PHHs than in PMHs [8]: 2 fold"
"CCN(N=O)C(N)=O [ENU, N-ethyl-N-nitrosourea]",47.3 µM,25.3 to 83.5 µM,7,800 µM,3.3,+++ (the ratio > 5),− (cytotoxicity of 0–10 %),3200 µM,"(+) for CA, MN, Pig-a, TG, comet",3200 µM,+ (11–30 %),2.3,683 µM,+++ (the ratio > 5),2400 µM,439 to 1030 µM,8,"(+) for MLA, CA, MN, Pig-a, Hprt, comet, and UDS","Pig-a and Hprt mutant frequencies [9]: significantly increased; cytotoxic effects (in words) ([7]; PMHs, ATP assay, 24-h exposure): cytotoxic effects over the same range of concentrations, but only in PMHs; BMD50 fold higher in PMHs than in PHHs (lower in PHHs) ([8]; CometChip BMD50, PMH vs PHH): 8–22 fold"
"c1ccc2c(c1)cc1ccc3cccc4ccc2c1c34 [B[a]P, benzo[a]pyrene]",9.2 µM,5.2 to 16.3 µM,5,–,–,–,+ (11–30 %),100 µM,"(+) for comet, MN, Pig-a and gene mutations",–,+ (11–30 %),–,–,–,–,–,–,"(+) for MLA, CA, MN, Pig-a, comet, Hprt, and UDS",Max. con. [11]: 100 µM
"Cc1c2ccccc2c(C)c2c1ccc1ccccc12 [DMBA, 7,12-dimethylbenzanthracene]",15.1 µM,8.5 to 25.8 µM,6,62.5 µM,3.0,++ (2 < ratio ≤ 5),− (cytotoxicity of 0–10 %),250 µM,"(+) for MN and Pig-a in blood, comet in liver, CA in BM, gene mutation",500 µM,+ (11–30 %),2.4,4.0 µM,+++ (the ratio > 5),31.25 µM,2.6 to 6.1 µM,3,"(+) for MLA, CA, MN, comet, and UDS","Carcinogenicity [12]: (+) for mammary liver, skin tumor, etc.; cytotoxic effects (in words) ([7]; PMHs, ATP assay, 24-h exposure): cytotoxic effects over the same range of concentrations, but only in PMHs; BMD50 fold higher in PHHs than in PMHs (lower in PMHs) ([8]; CometChip BMD50, PHH vs PMH): 3.8 fold and 3.75 fold; fold increase in % tail DNA (DNA damage) compared to the vehicle control [8]: 6.1–8.1 fold; LEC fold higher in PHHs than in PMHs [8]: 2 fold"
"[Cl][Cd][Cl] [CdCl2, cadmium chloride]",0.9 µM,0.5 to 1.6 µM,2,1 µM,3.2,"+ (1.5 < ratio ≤ 2, and p < 0.05)",+ (11–30 %),4 µM,"(+) for CA and MN, comet in liver",4 µM,++ (31–50 %),2.3,0.37 µM and 0.4 µM,+++ (the ratio > 5),2 µM,0.2 to 0.5 µM,1,"(+) for MN, CA, MLA, Hprt, comet","Cytotoxicity ([3]; PHHs, 4 μM, ref Seo et al., 2020): 25%; Carcinogenicity [12]: (+) for lung, prostate, etc.; Cytotoxicity ([7]; PMHs, 4 μM, 24-h exposure): 43%; fold increase in % tail DNA (DNA damage) compared to the vehicle control [8]: 6.1–8.1 fold"
Cc1c(N(C)CS(=O)(=O)[O-])c(=O)n(-c2ccccc2)n1C.[Na+] [dipyrone],–,–,–,–,–,–,–,–,–,–,–,–,–,–,–,–,–,–,DNA damage by comet assay (Vero cells): significant increases in DNA damage
"Oc1ccc(O)cc1 [HQ, hydroquinone]",–,–,–,–,–,− (The ratio ≤ 1.5-fold and p ≥ 0.05),++ (31–50 %),200 µM,"(+) for CA, MN; (−) for comet and TG in liver and stomach",200 µM,+ (11–30 %),–,–,–,–,–,–,"(+) for MLA, MN, CA, comet","cell viability ([3]; PHHs, 200 μM, range given for cisplatin and HQ together, ref Seo et al., 2020): 55–63%; Carcinogenicity [12]: (+) for liver and kidney adenoma; viability at 24 h, 200 µM ([6]; primary macaque hepatocytes (PMHs)): 78 to 81%"
"Cn1c(N)nc2ncc(-c3ccccc3)cc21 [PhIP, 2-amino-1-me-thyl-6-phenylimidazo-[4,5-b]-pyridine]",–,–,–,–,–,–,–,–,–,–,–,–,–,–,–,–,–,–,"DNA adducts in several organs, particularly liver, kidney, and heart (cynomolgus monkeys): high levels of DNA adducts"
"Cn1c(N)nc2c3cccnc3ccc21 [IQ, 2-amino-3-methylimidazo-[4,5-f]-quinoline]",–,–,–,–,–,–,–,–,–,–,–,–,–,–,–,–,–,–,"DNA adducts in several organs, particularly liver, kidney, and heart (cynomolgus monkeys): high levels of DNA adducts"
"Cc1cnc2ccc3c(nc(N)n3C)c2n1 [8-MeIQx, 2-amino-3,8-dimethylimidazo[4,5-f]-quinoxaline]",–,–,–,–,–,–,–,–,–,–,–,–,–,–,–,–,–,–,"DNA adducts in several organs, particularly liver, kidney, and heart (cynomolgus monkeys): high levels of DNA adducts"
"COS(C)(=O)=O [MMS, methyl methanesulfonate]",–,–,–,–,–,–,–,–,–,–,–,–,–,–,–,–,–,–,"BMDL50–BMDU50 [13]: 14.2 to 33.7 µM; BMDU/BMDL [13]: 2.4; LEC (lowest effective concentration) [13]: 125 µM; Potency ranking [13]: 6; Max. con. [11]: 500 µM; BMD50 [2]: 1.0 µM; BMDL50–BMDU50 [2]: 0.5 to 1.9 µM; BMDU/BMDL [2]: 3.5; LEC (lowest effective concentration) [2]: 62.5 µM; Potency ranking [2]: 3; Max. con. [3]: 500 µM; Genotoxicity assay findings in vivo ([4]; in vivo): (+) for CA, MN, UDS, Pig-a, TG, comet"

# — publication PMC12412453 (Toxicology, 2021)
